Data on 24 compounds can be found in patent publication US6506772B1, “Substituted [1,2,4]triazolo[1,5a]pyridine derivatives with activity as adenosine receptor ligands” (Hoffmann-La Roche Inc., priority 2000, dated 2003).

Experiment [1] concerns the target T1, human adenosine A2A receptor (Homo sapiens, UniProt P29274).
T1 construct: expressed in transfected cells; host or cells: CHO cells, Semliki Forest virus expression system; membrane preparation
Kind of experiment: Human adenosine A2A receptor [3H]-SCH-58261 binding assay.

The target of experiment [2] is T2, HA1 adenosine receptor (Homo sapiens, UniProt P30542).
T2 sequence (P30542 1-326): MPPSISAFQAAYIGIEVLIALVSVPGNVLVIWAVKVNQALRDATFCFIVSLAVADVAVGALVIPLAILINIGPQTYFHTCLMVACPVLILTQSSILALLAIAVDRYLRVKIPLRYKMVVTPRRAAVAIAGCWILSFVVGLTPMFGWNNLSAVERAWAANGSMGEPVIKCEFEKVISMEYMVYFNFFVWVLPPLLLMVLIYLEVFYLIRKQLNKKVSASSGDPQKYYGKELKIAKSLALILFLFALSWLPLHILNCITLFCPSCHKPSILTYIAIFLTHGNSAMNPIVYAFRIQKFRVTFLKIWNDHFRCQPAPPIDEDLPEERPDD
The experiment in a line: Human adenosine A1 receptor affinity (Ki hA1). The format is binding.

Where [3] appears, read: affinity to human adenosine A2A receptor, read-out: Ki HA2A.
[4] abbreviates: calculated ratio of the affinity to the HA1 receptor to the HA2a receptor.
Where [5] appears, read: affinity to human adenosine A1 receptor.
Where [6] appears, read: recombinant human A2A in CHO cell membranes, [3H]-SCH-58261, Cheng-Prussoff, read-out: Ki hA2A.

One may read the Ki as a dissociation constant, usually derived from enzyme kinetics or from competition with a known ligand.

Where two headings read alike, the source gives them in different places.

T1 sequence (P29274 whole entry): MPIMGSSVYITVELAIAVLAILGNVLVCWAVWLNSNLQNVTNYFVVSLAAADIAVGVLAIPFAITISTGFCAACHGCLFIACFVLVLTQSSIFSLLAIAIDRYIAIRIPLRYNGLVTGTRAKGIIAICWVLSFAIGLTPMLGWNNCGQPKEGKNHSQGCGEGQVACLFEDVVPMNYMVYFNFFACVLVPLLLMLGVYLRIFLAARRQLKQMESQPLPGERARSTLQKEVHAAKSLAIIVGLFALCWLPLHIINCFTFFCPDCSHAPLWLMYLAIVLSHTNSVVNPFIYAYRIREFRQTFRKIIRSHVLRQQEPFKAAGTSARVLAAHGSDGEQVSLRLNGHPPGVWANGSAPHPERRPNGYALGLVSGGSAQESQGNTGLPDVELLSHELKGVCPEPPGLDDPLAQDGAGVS

As for `CC(C)CN(CC(C)C)C(=O)c1cc(N)n2nc(-c3ccc(Br)o3)nc2c1` [Example 346, 5-Amino-2-(5-bromo-furan-2-yl)-[1,2,4]triazolo[1,5-a]pyridine-7-carboxylic acid diisobutylamide], the inhibition constant (Ki) in experiment [1] (setting [3]) worked out at 2.4 nM; in experiment [2] (setting [5]) it was 102 nM. For the same compound, in experiment [1] (setting [4]), the “selectivity (A1/A2a)” value is 42.7.

As for `Nc1cc(C(=O)N2CCc3ccccc3C2)cc2nc(-c3ccc(Br)o3)nn12` [Example 347, [5-Amino-2-(5-bromo-furan-2-yl)-[1,2,4]triazolo[1,5-a]pyridin-7-yl]-(3,4-dihydro-1H-isoquinolin-2-yl)-methanone], the values for the inhibition constant (Ki) in experiment [1] (setting [3]) and in experiment [2] (setting [5]) were 13.3 nM and 236 nM, respectively. Further, the “selectivity (A1/A2a)” value in experiment [1] (setting [4]) is 17.7.

Take `C=CCN(C(=O)c1cc(N)n2nc(-c3ccc(Br)o3)nc2c1)C1CCCCC1` [Example 348, 5-Amino-2-(5-bromo-furan-2-yl)-[1,2,4]triazolo[1,5-a]pyridine-7-carboxylic acid allyl-cyclohexyl-amide]: the Ki worked out at 2.6 nM in experiment [1] (setting [3]) and 67 nM in experiment [2] (setting [5]). Further, the “selectivity (A1/A2a)” value in experiment [1] (setting [4]) is 25.8.

As to `Nc1cc(C(=O)N2CCCC3CCCCC32)cc2nc(-c3ccc(Br)o3)nn12` (stereo not drawn) [Example 349, [5-Amino-2-(5-bromo-furan-2-yl)-[1,2,4]triazolo[1,5-a]pyridin-7-yl]-(octoahydro-quinolin-1-yl)-methanone], the inhibitory constant (Ki) came to 2.9 nM in experiment [1] (setting [3]) and 64.7 nM in experiment [2] (setting [5]). For the same compound, in experiment [1] (setting [4]), the “selectivity (A1/A2a)” value is 22.3.

Regarding `Nc1cc(C(=O)N2CCC3CCCCC3C2)cc2nc(-c3ccc(Br)o3)nn12` (stereo not drawn) [Example 350], the Ki in experiment [1] (setting [3]) was 5.8 nM; in experiment [2] (setting [5]) it was 167 nM. In experiment [1] (setting [4]), the “selectivity (A1/A2a)” value was 28.8.

Regarding `CC(C)N(C(=O)c1cc(N)n2nc(-c3ccc(Br)o3)nc2c1)C1CCCCC1` [Example 351, 5-Amino-2-(5-bromo-furan-2-yl)-[1,2,4]triazolo[1,5-a]pyridine-7-carboxylic acid cyclohexyl-isopropyl-amide], the inhibition constant Ki in experiment [1] (setting [3]) came to 2.9 nM; in experiment [2] (setting [5]), 77.3 nM. Besides, in experiment [1] (setting [4]), the “selectivity (A1/A2a)” value was 26.7.

Turning to `Nc1cc(C(=O)N2CCN(c3ccccc3)CC2)cc2nc(-c3ccc(Br)o3)nn12` [Example 353, [5-Amino-2-(5-bromo-furan-2-yl)-[1,2,4]triazolo[1,5-a]pyridin-7-yl]-(4-phenyl-piperazin-1-yl)-methanone], the inhibition constant Ki in experiment [1] (setting [3]) came out at 81.5 nM; in experiment [2] (setting [5]), 1040 nM. The “selectivity (A1/A2a)” value in experiment [1] (setting [4]) is given as 12.7.

As to `Nc1cc(C(=O)N2CCCCC2c2cccnc2)cc2nc(-c3ccc(Br)o3)nn12` (stereo not drawn) [Example 354, [5-Amino-2-(5-bromo-furan-2-yl)-[1,2,4]triazolo[1,5-a]pyridin-7-yl]-(3,4,5,6-tetrahydro-2H-[2,3′]bipyridinyl-1-yl)-methanone], the Ki stood at 2.9 nM in experiment [1] (setting [3]) and 45.5 nM in experiment [2] (setting [5]). Moreover, in experiment [1] (setting [4]), the “selectivity (A1/A2a)” value is 15.7.

Take `Nc1cc(C(=O)N2CCc3c([nH]c4ccccc34)C2)cc2nc(-c3ccc(Br)o3)nn12` [Example 355, [5-Amino-2-(5-bromo-furan-2-yl)-[1,2,4]triazolo[1,5-a]pyridin-7-yl]-(1,3,4,9-tetrahydro-b-carbolin-2-yl)-methanone]: the values for the Ki in experiment [1] (setting [3]) and in experiment [2] (setting [5]) were 47 nM and 286 nM, respectively. Further, in experiment [1] (setting [4]), the “selectivity (A1/A2a)” value is recorded as 6.1.

Regarding `C[C@@H]1CCC[C@H](C)N1C(=O)c1cc(N)n2nc(-c3nccs3)nc2c1` [Example 358, (5-Amino-2-thiazol-2-yl-[1,2,4]triazolo[1,5-a]pyridin-7-yl)-(cis-2,6-dimethyl-piperidin-1-yl)-methanone], the inhibition constant (Ki) stood at 74.7 nM in experiment [1] (setting [3]) and 1720 nM in experiment [2] (setting [5]). Further, in experiment [1] (setting [4]), the “selectivity (A1/A2a)” value is recorded as 23.0.

Turning to `C[C@@H]1CC[C@@H](C)N1C(=O)c1cc(N)n2nc(-c3ccc(Br)o3)nc2c1` [Example 359, [5-Amino-2-(5-bromo-furan-2-yl)-[1,2,4]triazolo[1,5-a]pyridin-7-yl]-[(2R,5R)-trans-2,5-dimethyl-pyrrolidin-1-yl]-methanone], the Ki in experiment [1] (setting [3]) was found to be 7.3 nM; in experiment [2] (setting [5]) it was 934 nM. For the same compound, the “selectivity (A1/A2a)” value in experiment [1] (setting [4]) is recorded as 128.0.

With `C[C@@H]1CN(C(=O)c2cc(N)n3nc(-c4ccc(Br)o4)nc3c2)C[C@H](C)O1` [Example 360, [5-Amino-2-(5-bromo-furan-2-yl)-[1,2,4]triazolo[1,5-a]pyridin-7-yl]-(cis-2,6-dimethyl-morpholin-4-yl)-methanone], the Ki in experiment [1] (setting [3]) was 7.7 nM; in experiment [2] (setting [5]) it was 422 nM. In addition, the “selectivity (A1/A2a)” value in experiment [1] (setting [4]) is recorded as 54.9.

For the compound `Nc1cc(C(=O)N2CCCC3CCCCC32)cc2nc(-c3nccs3)nn12` (stereo not drawn) [Example 379, (5-Amino-2-thiazol-2-yl-[1,2,4]triazolo[1,5-a]pyridin-7-yl)-(octahydro-quinolin-1-yl)-methanone], in experiment [1] (ratio KiHA1 divided by KiHA2A), the “selectivity (A1/A2a)” value turned out to be 17.2. Also, the inhibitory constant (Ki) in experiment [1] (setting [6]) turned out to be 33.5 nM; in experiment [2] it was 577 nM.

Regarding `Nc1cc(C(=O)N2CCC3CCCCC3C2)cc2nc(-c3nccs3)nn12` (stereo not drawn) [Example 380, (5-Amino-2-thiazol-2-yl-[1,2,4]triazolo[1,5-a]pyridin-7-yl)-(octahydro-isoquinolin-2-yl)-methanone], the “selectivity (A1/A2a)” value in experiment [1] (ratio KiHA1 divided by KiHA2A) was found to be 24.8. Also, the Ki in experiment [1] (setting [6]) came out at 76.9 nM; in experiment [2] it was 1910 nM.

Turning to `CCN(CC)C(=O)C1CCCN(C(=O)c2cc(N)n3nc(-c4nccs4)nc3c2)C1` (stereo not drawn) [Example 381, 1-(5-Amino-2-thiazol-2-yl-[1,2,4]triazolo[1,5-a]pyridine-7-carbonyl)-piperidine-3-carboxylic acid diethylamide], the “selectivity (A1/A2a)” value in experiment [1] (ratio KiHA1 divided by KiHA2A) is listed as 11.4. The inhibition constant Ki in experiment [1] (setting [6]) was determined as 180 nM; in experiment [2], 2050 nM.

Take `C=CCN(C(=O)c1cc(N)n2nc(-c3nccs3)nc2c1)C1CCCC1` [Example 382, 5-Amino-2-thiazol-2-yl-[1,2,4]triazolo[1,5-a]pyridine-7-carboxylic acid allyl-cyclopentyl-amide]: the “selectivity (A1/A2a)” value in experiment [1] (ratio KiHA1 divided by KiHA2A) was determined as 13.4. The figures for the Ki in experiment [1] (setting [6]) and in experiment [2] were 54.6 nM and 729 nM, respectively.

`CCN(C(=O)c1cc(N)n2nc(-c3nccs3)nc2c1)C1CCCCC1` [Example 383, 5-Amino-2-thiazol-2-yl-[1,2,4]triazolo[1,5-a]pyridine-7-carboxylic acid cyclohexyl-ethyl-amide]: the “selectivity (A1/A2a)” value in experiment [1] (ratio KiHA1 divided by KiHA2A) is listed as 13.9. The values for the Ki in experiment [1] (setting [6]) and in experiment [2] were 81.2 nM and 1130 nM, respectively.

Turning to `COC[C@@H]1CC[C@@H](COC)N1C(=O)c1cc(N)n2nc(-c3ccc(Br)o3)nc2c1` [Example 387, [5 -Amino-2-(5-bromo-furan-2-yl)-[1,2,4]triazolo[1,5-a]pyridin-7-yl]-(S,S-2,5-bis-methoxymethyl-pyrrolidin-1-yl)-methanone], the “selectivity (A1/A2a)” value in experiment [1] (ratio KiHA1 divided by KiHA2A) is 21.5. Also, the figures for the inhibition constant (Ki) in experiment [1] (setting [6]) and in experiment [2] were 118 nM and 2540 nM, respectively.

For the compound `NC(=O)[C@@H]1CCCN1C(=O)c1cc(N)n2nc(-c3ccc(Br)o3)nc2c1` [Example 388, 1-[5-Amino-2-(5-bromo-furan-2-yl)-[1,2,4]triazolo[1,5-a]pyridine-7-carbonyl]-L-pyrrolidine-2-carboxylic acid amide], in experiment [1] (ratio KiHA1 divided by KiHA2A), the “selectivity (A1/A2a)” value turned out to be 12.4. The Ki stood at 26.7 nM in experiment [1] (setting [6]) and 330 nM in experiment [2].

In the case of `NC(=O)[C@@H]1CCCN1C(=O)c1cc(N)n2nc(-c3ccc(Br)o3)nc2c1` [Example 389, 1-[5-Amino-2-(5-bromo-furan-2-yl)-[1,2,4]triazolo[1,5-a]pyridine-7-carbonyl]-D-pyrrolidine-2-carboxylic acid amide], in experiment [1] (ratio KiHA1 divided by KiHA2A), the “selectivity (A1/A2a)” value was found to be 39.1. Also, the Ki in experiment [1] (setting [6]) was found to be 9.8 nM; in experiment [2], 383 nM.

For `CN(C)C(=O)C1CCCN1C(=O)c1cc(N)n2nc(-c3ccc(Br)o3)nc2c1` (stereo not drawn) [Example 390, 1-[5-Amino-2-(5-bromo-furan-2-yl)-[1,2,4]triazolo[1,5-a]pyridine-7-carbonyl]-pyrrolidine-2-carboxylic acid dimethylamide], the “selectivity (A1/A2a)” value in experiment [1] (ratio KiHA1 divided by KiHA2A) is listed as 98. Also, the Ki was found to be 8.3 nM in experiment [1] (setting [6]) and 813 nM in experiment [2].

For `CC(=O)NC1CCN(C(=O)c2cc(N)n3nc(-c4ccc(Br)o4)nc3c2)C1` (stereo not drawn) [Example 391, N-{1-[5-Amino-2-(5-bromo-furan-2-yl)-[1,2,4]triazolo[1,5-a]pyridine-7-carbonyl]-pyrrolidin-3-yl}-acetamide], in experiment [1] (ratio KiHA1 divided by KiHA2A), the “selectivity (A1/A2a)” value came out at 27.6. The Ki came to 53 nM in experiment [1] (setting [6]) and 1460 nM in experiment [2].

In the case of `CC(=O)N(C)C1CCN(C(=O)c2cc(N)n3nc(-c4ccc(Br)o4)nc3c2)C1` (stereo not drawn) [Example 392, N-{1-[5-Amino-2-(5-bromo-furan-2-yl)-[1,2,4]triazolo[1,5-a]pyridine-7-carbonyl]-pyrrolidin-3-yl}-N-methyl-acetamide], the “selectivity (A1/A2a)” value in experiment [1] (ratio KiHA1 divided by KiHA2A) is reported as 51.2. For the same compound, the inhibition constant Ki in experiment [1] (setting [6]) amounted to 34.7 nM; in experiment [2], 1780 nM.

For `CCC1CCC(C)N(C(=O)c2cc(N)n3nc(-c4ccc(Br)o4)nc3c2)C1` (stereo not drawn) [Example 393, [5-Amino-2-(5-bromo-furan-2-yl)-[1,2,4]triazolo[1,5-a]pyridin-7-yl]-(5-ethyl-2-methyl-piperidin-1-yl)-methanone], the “selectivity (A1/A2a)” value in experiment [1] (ratio KiHA1 divided by KiHA2A) came out at 32.9. In addition, the results for the inhibitory constant (Ki) in experiment [1] (setting [6]) and in experiment [2] were 2.9 nM and 95.3 nM, respectively.
